The subject of assay [1] is Tsc2+/- mice. The experiment in a line: Fear conditioning test. It counts as in vivo, mouse. As to conditions: two-and-a-half-day treatment, last dose 3 hours before training. The text has this: (§1) To determine the effects of eNMDAR antagonists on the brain histology of Tsc2^+/− mice, quantitative confocal immunohistochemistry was used to analyze coronal brain slices from 3-month-old wild-type (WT) and Tsc2^+/− mice that had been treated for two and a half days with vehicle, memantine or NitroSynapsin. Tsc2+/− mice on the C57Bl/6J background received via the intraperitoneal route either vehicle or a loading dose of 92 μmol/kg of memantine or NitroSynapsin, followed by 4.6 μmol/kg of drug twice daily for two-and-a-half-days, with the last dose 3 hours prior to the behavioral training session (for a total of five drug injections). This dosing regimen yields an effective concentration of drug at NMDARs in the brain of 1-10 μM.
Fear conditioning tests were performed on three-month-old Tsc2^+/+ and Tsc2^+/− mice to explore the effects of eNMDAR antagonists on anxiety, and learning and memory deficits in Tsc2^+/− mice. Vehicle, memantine or NitroSynapsin were administered for two and a half days, with the last dose of drug occurring 3-hours prior to the first training session. […] Freezing time of three-month-old WT and Tsc2^+/− transgenic mice treated with vehicle, memantine or NitroSynapsin in fear-conditioning trials. […] Values are mean+s.e.m. (n=7-12 mice per group). […]

Assay [2] concerns Tsc2+/- mice. The experiment in a line: Quantitative confocal immunohistochemistry of synaptophysin (SY38) in hippocampus. To be noted: i.p. loading 92 μmol/kg then 4.6 μmol/kg twice daily, two and a half days. The assay is classed as in vivo, mouse.
Description: as §1, with “eNMDAR” left out, “Tsc2^+/-” for “Tsc2^+/−”, “Tsc2+/-” for “Tsc2+/−”

Assay [3] has as its system p38 MAPK/MAPKAPK2/TSC2/mTORC1/S6K1 cascade. The experiment in a line: Western blots of eNMDAR-triggered signaling. The assay is classed as cell-based. As to conditions: 10 μM. The text has this:
This experiment was replicated 4 times with similar results and quantified in FIG. 20C.
For orientation: A western blot detects proteins with antibodies after separation by electrophoresis.

The conditions of assay [4]: Fung and Hardan 2015; cited from earlier work.
The subject of the next assay is Mef2c-het mice. The experiment in a line: Immunohistochemistry and stereological cell counting in hippocampus after chronic treatment. It counts as in vivo, mouse. To be noted: optical dissector. The text has this:
Mef2c heterozygous knockout (Mef2c-het) mice were created by crossing mice carrying the conventional exon 2-deleted allele of Mef2c (Mef2c^Δ2) with their WT littermates. All procedures for maintaining and using these mice were approved by the Institutional Animal Care and Use Committee (IACUC) at the Sanford Burnham Prebys Medical Discovery Institute. In this study, only male mice were used for the behavioral assays to insure uniformity (either with or without drug treatment). Chronic treatment with memantine, NitroSynapsin (both at 4.6 μmol/kg body weight) or vehicle (PBS) was administered via i.p. injection, twice a day for at least 3 months, starting at ˜2.5 weeks of age. This age was chosen because mice are still juveniles and thus treatment could begin in human at an equivalent stage.
Mice were perfused with PBS buffer and then 2% paraformaldehyde in PBS (PFA).
After perfusion, brains were removed and placed into 2% PFA overnight for post-fixation and then sunk in 30% sucrose in PBS prior to freezing. Cryostat sections were cut at a thickness of 15 μm. Sections were soaked in Antigen Unmasking Solution (Vector) and microwaved for 30 s, followed by permeabilization with 0.25% Triton X-100 in PBS for 15 min. Primary antibodies were incubated for 16 h at 4° C. and fluorescence-conjugated secondary antibodies for 2 h at 25° C. Numerous unstained cells in each field served as an internal control for staining specificity. Primary antibodies included: NeuN (mouse, EMD Millipore), activated caspase-3 (rabbit, Cell Signaling), VGLUT1 (guinea pig, SYSY), VGLUT2 (rabbit, SYSY), VGAT (mouse, SYSY), synaptophysin (mouse, Sigma), GFAP (mouse, Sigma), PCNA (mouse, Santa Cruz), DCX (goat, Santa Cruz). TUNEL assay was performed to assess apoptosis using the Roche In Situ Cell Death Detection Kit per vender's instruction. The number of cells positive or percent area occupied by NeuN, activated caspase-3, TUNEL, GFAP, PCNA, or DCX was counted in specific brain regions using an optical dissector, or estimated by quantitative confocal immunohistochemistry or optical density, as described previously.

With `CC12CC3CC(C)(C1)CC(N)(C3)C2` [memantine, reference compound], the “context discrimination (freezing time, training vs novel context)” value in the assay on Tsc2+/- mice [1] is on record as “failed to mitigate this deficit”. In addition, the “synaptophysin (SY38) staining in hippocampus (% area)” value in the assay on Tsc2+/- mice [2] was “not statistically significant”. Besides, the “phosphorylation/activation of the p38 MAPK/MAPKAPK2/TSC2/mTORC1/S6K1 cascade on eNMDAR stimulation” value in assay [3] is recorded as “reduced this signaling”. Also, in assay [4], the “outcome in human clinical trials for ASD/IDD” value is on record as “failed in human clinical trials”. The “total number of NeuN+ cells in hippocampus” value with Mef2c-het mice is “but not memantine (M), was significantly greater than in vehicle (V)-treated mice”.

The record behind these values is patent US11529319B2, “Methods and compositions for treating neurological conditions” (priority 2017, dated 2022).
